From US12534452B2, “N-(1H-imidazol-2-yl)benzamide compound and pharmaceutical composition comprising the same as active ingredient” (KAINOS MEDICINE, INC., priority 2019, dated 2026)

target: IRAK4 (Homo sapiens (Human), UniProt Q9NWZ3); test: In vitro IRAK4 phosphorylation activity assay; assay type: biochemical; conditions: [γ-33P]-ATP, myelin basic protein substrate, 40 minutes at room temperature; categories
Method in brief: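 Radiometric filter-binding assay, no compound–kinase preincubation; 8 mM MOPS pH 7.0, 0.2 mM EDTA, 10 mM Mg acetate, 0.33 mg/mL myelin basic protein substrate, [γ-33P]-ATP. Reaction 40 min at room temperature, stopped with phosphoric acid, scintillation counting; IC50 reported in categories.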

Sequence of IRAK4 (Q9NWZ3 whole entry): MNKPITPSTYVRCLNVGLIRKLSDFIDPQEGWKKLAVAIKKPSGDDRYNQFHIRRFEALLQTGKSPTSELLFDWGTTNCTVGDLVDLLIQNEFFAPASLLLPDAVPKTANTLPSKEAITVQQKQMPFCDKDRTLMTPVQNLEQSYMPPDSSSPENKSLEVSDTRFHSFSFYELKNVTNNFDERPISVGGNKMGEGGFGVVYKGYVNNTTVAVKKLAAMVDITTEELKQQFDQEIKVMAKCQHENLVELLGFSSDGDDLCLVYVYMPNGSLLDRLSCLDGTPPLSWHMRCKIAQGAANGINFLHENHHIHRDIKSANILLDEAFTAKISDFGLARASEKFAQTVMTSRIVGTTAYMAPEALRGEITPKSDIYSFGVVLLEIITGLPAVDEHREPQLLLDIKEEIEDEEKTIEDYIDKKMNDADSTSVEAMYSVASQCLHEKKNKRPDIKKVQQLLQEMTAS

SMILES | IC50 [nM]
CN(C(=O)CCCc1cn(-c2ccccc2)c(NC(=O)c2cccc(-c3cnn(C)c3F)c2)n1)C1CC1 [Example 233, N-(4-(4-(cyclopropyl(methyl)amino)-4-oxobutyl)-1-phenyl-1H-imidazol-2-yl)-3-(5-fluoro-1-methyl-1H-pyrazol-4-yl)benzamide] | 50 to 100
O=C(CCCc1cn(-c2ccccc2)c(NC(=O)c2cccc(-c3cnn(CF)c3)c2)n1)NC1CC1 [Example 234, N-(4-(4-(cyclopropylamino)-4-oxobutyl)-1-phenyl-1H-imidazol-2-yl)-3-(1-(fluoromethyl)-1H-pyrazol-4-yl)benzamide] | < 50
O=C(CCCc1cn(-c2ccccc2)c(NC(=O)c2cccc(-c3cnn(C(F)F)c3)c2)n1)NC1CC1 [Example 235, N-(4-(4-(cyclopropylamino)-4-oxobutyl)-1-phenyl-1H-imidazol-2-yl)-3-(1-(difluoromethyl)-1H-pyrazol-4-yl)benzamide] | < 50
O=C(CCCc1cn(-c2ccccc2)c(NC(=O)c2cccc(-c3cnn(C(F)(F)F)c3)c2)n1)NC1CC1 [Example 236, N-(4-(4-(cyclopropylamino)-4-oxobutyl)-1-phenyl-1H-imidazol-2-yl)-3-(1-(trifluoromethyl)-1H-pyrazol-4-yl)benzamide] | < 50
O=C(Nc1nc(CCCCCC(=O)N2CCCCC2)cn1-c1ccccc1)c1cccc(-c2ccc3[nH]ncc3c2)c1 [Example 237, 3-(1H-indazol-5-yl)-N-(4-(6-oxo-6-(piperidin-1-yl)hexyl)-1-phenyl-1H-imidazol-2-yl)benzamide] | < 50
O=C(CCCCCc1cn(-c2ccccc2)c(NC(=O)c2cccc(-c3ccc4[nH]ncc4c3)c2)n1)NC1CC1 [Example 238, N-(4-(6-(cyclopropylamino)-6-oxohexyl)-1-phenyl-1H-imidazol-2-yl)-3-(1H-indazol-5-yl)benzamide] | < 50
CN1CCN(C(=O)CCCCCc2cn(-c3ccccc3)c(NC(=O)c3cccc(-c4ccc5[nH]ncc5c4)c3)n2)CC1 [Example 239, 3-(1H-indazol-5-yl)-N-(4-(6-(4-methylpiperazin-1-yl)-6-oxohexyl)-1-phenyl-1H-imidazol-2-yl)benzamide] | < 50
O=C(Nc1nc(CCCCCC(=O)N2CCCC2)cn1-c1ccccc1)c1cccc(-c2ccc3[nH]ncc3c2)c1 [Example 240, 3-(1H-indazol-5-yl)-N-(4-(6-oxo-6-(pyrrolidin-1-yl)hexyl)-1-phenyl-1H-imidazol-2-yl)benzamide] | < 50
O=C(Nc1nc(CCCCCC(=O)N2CCCCCC2)cn1-c1ccccc1)c1cccc(-c2ccc3[nH]ncc3c2)c1 [Example 241, N-(4-(6-(azepan-1-yl)-6-oxohexyl)-1-phenyl-1H-imidazol-2-yl)-3-(1H-indazol-5-yl)benzamide] | < 50
O=C(Nc1nc(CCCCCC(=O)N2CCCCC2)cn1-c1ccccc1)c1cccc(-c2ccc3[nH]nnc3c2)c1 [Example 242, 3-(1H-benzo[d][1,2,3]triazol-5-yl)-N-(4-(6-oxo-6-(piperidin-1-yl)hexyl)-1-phenyl-1H-imidazol-2-yl)benzamide] | < 50
CNC(=O)Cc1cn(-c2ccccc2)c(NC(=O)c2cccc(-c3ccc4[nH]ncc4c3)c2)n1 [Example 243, 3-(1H-indazol-5-yl)-N-(4-(2-(methylamino)-2-oxoethyl)-1-phenyl-1H-imidazol-2-yl)benzamide] | 50 to 100
CNC(=O)CCCc1cn(-c2ccccc2)c(NC(=O)c2cccc(-c3ccc4[nH]ncc4c3)c2)n1 [Example 244, 3-(1H-indazol-5-yl)-N-(4-(4-(methylamino)-4-oxobutyl)-1-phenyl-1H-imidazol-2-yl)benzamide] | < 50
O=C(CCCc1cn(-c2ccccc2)c(NC(=O)c2cccc(-c3ccc4[nH]ncc4c3)c2)n1)NC1CC1 [Example 245, N-(4-(4-(cyclopropylamino)-4-oxobutyl)-1-phenyl-1H-imidazol-2-yl)-3-(1H-indazol-5-yl)benzamide] | < 50
O=C(Nc1nc(CCCC(=O)N2CCCCC2)cn1-c1ccccc1)c1cccc(-c2ccc3[nH]ncc3c2)c1 [Example 246, 3-(1H-indazol-5-yl)-N-(4-(4-oxo-4-(piperidin-1-yl)butyl)-1-phenyl-1H-imidazol-2-yl)benzamide] | < 50
CN1CCN(C(=O)CCCc2cn(-c3ccccc3)c(NC(=O)c3cccc(-c4ccc5[nH]ncc5c4)c3)n2)CC1 [Example 247, 3-(1H-indazol-5-yl)-N-(4-(4-(4-methylpiperazin-1-yl)-4-oxobutyl)-1-phenyl-1H-imidazol-2-yl)benzamide] | < 50
O=C(CCCc1cn(-c2ccccc2)c(NC(=O)c2cccc(-c3cccc4cn[nH]c34)c2)n1)NC1CC1 [Example 248, N-(4-(4-(cyclopropylamino)-4-oxobutyl)-1-phenyl-1H-imidazol-2-yl)-3-(1H-indazol-7-yl)benzamide] | > 100
O=C(CCCc1cn(-c2ccccc2)c(NC(=O)c2cccc(-c3cccc4[nH]ncc34)c2)n1)NC1CC1 [Example 249, N-(4-(4-(cyclopropylamino)-4-oxobutyl)-1-phenyl-1H-imidazol-2-yl)-3-(1H-indazol-4-yl)benzamide] | < 50

SMILES | IC50 [nM]
O=C(CCCc1cn(-c2ccccc2)c(NC(=O)c2cccc(-c3ccc4cn[nH]c4c3)c2)n1)NC1CC1 [Example 250, N-(4-(4-(cyclopropylamino)-4-oxobutyl)-1-phenyl-1H-imidazol-2-yl)-3-(1H-indazol-6-yl)benzamide] | < 50
Cn1ncc2cc(-c3cccc(C(=O)Nc4nc(CCCCCC(=O)N5CCCCC5)cn4-c4ccccc4)c3)ccc21 [Example 251, 3-(1-methyl-1H-indazol-5-yl)-N-(4-(6-oxo-6-(piperidin-1-yl)hexyl)-1-phenyl-1H-imidazol-2-yl)benzamide] | > 100
O=C(Nc1nc(CCCCCCN2CCCCC2)cn1-c1ccccc1)c1cccc(-c2ccc3[nH]ncc3c2)c1 [Example 252, 3-(1H-indazol-5-yl)-N-(1-phenyl-4-(6-(piperidin-1-yl)hexyl)-1H-imidazol-2-yl)benzamide] | < 50
O=C(Nc1nc(CCCCCCN2CCCCC2)cn1-c1ccccc1)c1cccc(-c2ccc3[nH]ccc3c2)c1 [Example 253, 3-(1H-indol-5-yl)-N-(1-phenyl-4-(6-(piperidin-1-yl)hexyl)-1H-imidazol-2-yl)benzamide] | 50 to 100
O=C(Nc1nc(CCCCCCN2CCOCC2)cn1-c1ccccc1)c1cccc(-c2ccc3[nH]ncc3c2)c1 [Example 254, 3-(1H-indazol-5-yl)-N-(4-(6-morpholinohexyl)-1-phenyl-1H-imidazol-2-yl)benzamide] | < 50
O=C(Nc1nc(CCCCCCN2CCCCC2)cn1-c1ccccc1)c1cccc(-c2cccc3[nH]ncc23)c1 [Example 255, 3-(1H-indazol-4-yl)-N-(1-phenyl-4-(6-(piperidin-1-yl)hexyl)-1H-imidazol-2-yl)benzamide] | < 50
O=C(Nc1nc(CCCCN2CCCCC2)cn1-c1ccccc1)c1cccc(-c2ccc3[nH]ncc3c2)c1 [Example 256, 3-(1H-indazol-5-yl)-N-(1-phenyl-4-(4-(piperidin-1-yl)butyl)-1H-imidazol-2-yl)benzamide] | < 50
O=C(Nc1nc(CCCCN2CCCCC2)cn1-c1ccccc1)c1cccc(-c2cccc3[nH]ncc23)c1 [Example 257, 3-(1H-indazol-4-yl)-N-(1-phenyl-4-(4-(piperidin-1-yl)butyl)-1H-imidazol-2-yl)benzamide] | < 50
O=C(Nc1nc(CCCCN2CCCC2=O)cn1-c1ccccc1)c1cccc(-c2ccc3[nH]ncc3c2)c1 [Example 258, 3-(1H-indazol-5-yl)-N-(4-(4-(2-oxopyrrolidin-1-yl)butyl)-1-phenyl-1H-imidazol-2-yl)benzamide] | < 50
O=C(Nc1nc(CCCCCCN2CCCC2=O)cn1-c1ccccc1)c1cccc(-c2ccc3[nH]ncc3c2)c1 [Example 259, 3-(1H-indazol-5-yl)-N-(4-(6-(2-oxopyrrolidin-1-yl)hexyl)-1-phenyl-1H-imidazol-2-yl)benzamide] | < 50
O=C(Nc1nc(CCCCCCN2CCCCC2=O)cn1-c1ccccc1)c1cccc(-c2ccc3[nH]ncc3c2)c1 [Example 260, 3-(1H-indazol-5-yl)-N-(4-(6-(2-oxopiperidin-1-yl)hexyl)-1-phenyl-1H-imidazol-2-yl)benzamide] | < 50
O=C(Nc1nc(CCCCNC(=O)C2CC2)cn1-c1ccccc1)c1cccc(-c2ccc3[nH]ncc3c2)c1 [Example 261, N-(4-(4-(cyclopropanecarboxamido)butyl)-1-phenyl-1H-imidazol-2-yl)-3-(1H-indazol-5-yl)benzamide] | < 50
O=C(Nc1nc(CCCCCCNC(=O)C2CC2)cn1-c1ccccc1)c1cccc(-c2ccc3[nH]ncc3c2)c1 [Example 262, N-(4-(6-(cyclopropanecarboxamido)hexyl)-1-phenyl-1H-imidazol-2-yl)-3-(1H-indazol-5-yl)benzamide] | < 50
Cn1ncc2cc(-c3cccc(C(=O)Nc4nc(CCCCCCN5CCCCC5)cn4-c4ccccc4)c3)ccc21 [Example 263, 3-(1-methyl-1H-indazol-5-yl)-N-(1-phenyl-4-(6-(piperidin-1-yl)hexyl)-1H-imidazol-2-yl)benzamide] | 50 to 100
Cn1ncc2cc(-c3cccc(C(=O)Nc4nc(CCCCCCN5CCOCC5)cn4-c4ccccc4)c3)ccc21 [Example 264, 3-(1-methyl-1H-indazol-5-yl)-N-(4-(6-morpholinohexyl)-1-phenyl-1H-imidazol-2-yl)benzamide] | > 100
CNC(=O)Cc1cn(-c2ccccc2)c(NC(=O)c2cccc(-c3ccncc3)c2)n1 [Example 265, N-(4-(2-(methylamino)-2-oxoethyl)-1-phenyl-1H-imidazol-2-yl)-3-(pyridin-4-yl)benzamide] | > 100
CNC(=O)CCCc1cn(-c2ccccc2)c(NC(=O)c2cccc(-c3ccncc3)c2)n1 [Example 266, N-(4-(4-(methylamino)-4-oxobutyl)-1-phenyl-1H-imidazol-2-yl)-3-(pyridin-4-yl)benzamide] | < 50
